The values that follow come from publication PMC9115111, “Metalloprotease Gp63-Targeting Novel Glycoside Exhibits Potential Antileishmanial Activity” (Frontiers in Cellular and Infection Microbiology, 2022).

The test system of test [1] is L. donovani promastigotes. Nature of the test: JC-1 mitochondrial membrane potential in promastigotes. Particulars: treated promastigotes vs control, 24 h. The class given is cell-based, Leishmania donovani. On the procedure: Mitochondrial membrane (Δψm) potential was examined using 5,6-dichloro-2-[3-(5,6-dichloro-1,3-diethyl-1,3-dihydro-2H-benzimidazol-2-ylidene)-1propenyl]-1,3-diethyl-,iodide (JC-1 dye) (Life Technologies, USA) as a probe. Treated and untreated groups were incubated for 24 h. Cells were washed with PBS and JC-1 labeled, and samples were analyzed through FACS diva (Beckton-Dickinson, Pharmingen). The approximate fluorescence excitation/emission maxima of 514/529 nm for monomeric form and 585/590 nm for J-aggregate form were used. The labeled cells were also allowed to adhere to glass slides for visualization under fluorescence microscope (Nikon Ti eclipse, USA) ([Shivappagowdar et al., 2019]).

The target in the next test is T1, LdGp63 (Leishmania donovani, UniProt P23223).
T1 construct: endogenous in cells; host or cells: Leishmania donovani promastigotes (AG83 lab strain per abstract)
Nature of the test: Cellular thermal shift assay (CETSA) in promastigotes. Particulars: 5 µM, 24 h, heated to 80°C; Gp63 destabilized in untreated lysate. The class given is binding. The procedure:
Control cells were incubated with an equal volume of a vehicle. Following incubation, the parasites were washed with PBS to remove excess drug and harvested in 200 μl of a lysis solution (50 mM HEPES, 150 mM NaCl, 1% Triton X-100 and 1% IGEPAL, 1 mM phenylmethyl sulfonyl fluoride). The lysates were centrifuged at 14,000 g for 20 min at 4°C, and supernatants were transferred to new tubes. Furthermore, the protein concentration was measured using the Pierce BCA protein assay kit. After preparation of lysates, 30 μl (0.8 mg/ml) aliquots of the supernatants were heated individually on a Thermomixer compact (Eppendorf) at different temperatures for 7 min and then cooled at room temperature for 3 min. CETSA samples were separated by SDS-PAGE, and immunoblotting was performed as described previously using a mouse polyclonal anti-LdGp63 catalytic domain antibody (1:500) ([Chakrabarti et al., 2021]).

T1 sequence (P23223 88-565): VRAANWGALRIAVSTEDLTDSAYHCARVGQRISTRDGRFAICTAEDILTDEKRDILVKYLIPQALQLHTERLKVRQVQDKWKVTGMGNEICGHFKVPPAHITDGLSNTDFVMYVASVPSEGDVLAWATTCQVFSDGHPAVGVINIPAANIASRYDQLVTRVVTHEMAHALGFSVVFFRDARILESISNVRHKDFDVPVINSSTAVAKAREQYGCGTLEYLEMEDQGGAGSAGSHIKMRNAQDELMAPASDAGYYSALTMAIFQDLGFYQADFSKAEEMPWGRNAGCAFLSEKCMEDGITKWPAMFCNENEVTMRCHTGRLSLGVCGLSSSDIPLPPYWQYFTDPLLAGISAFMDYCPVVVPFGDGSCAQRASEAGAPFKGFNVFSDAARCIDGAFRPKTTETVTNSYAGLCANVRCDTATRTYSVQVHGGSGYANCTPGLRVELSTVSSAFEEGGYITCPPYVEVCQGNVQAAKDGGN

As for `CC(C)CCOC1O[C@H](CO)[C@@H](O)[C@H](O)[C@H]1O` (some centres unmarked) [Gly2], the “mitochondrial uptake of JC-1 dye (ΔΨm)” value in test [1] was “significantly decreased”. For the same compound, the “thermostability of Gp63 in treated lysates (immunoblot)” value at LdGp63 is “stable at higher temperature”.
